From patent publication US10570155B2, “Imidazooxazole derivative having antitumor effect, and pharmaceutical composition including same” (KOREA INSTITUTE OF SCIENCE AND TECHNOLOGY, priority 2016, dated 2020)

Columns and labels:
[1] = system: A375; assay: NCI cancer cell line panel screening (SRB), melanoma cell line A375; assay type: cell-based; details: Homo sapiens, A-375, read-out: IC50 against melanoma cell line in vitro
Experimental: (§1) According to the standard protocol (http://dtp.nci.nih.gov/dtpstandard/dwindex/index.isp) of the US National Cancer Institute (NCI) (www.dtp.nci.nih.gov), screening of a cancer cell line panel was performed. Briefly, human cell lines were allowed to grow in an RPMI 1640 medium containing 5% FBS and 2 mM L-glutamine. For a general screening experiment, cells were inoculated in 96-well microtiter plates in 100 μl at a plating density ranging from 5000 cells/well to 40,000 cells/well depending on the doubling time of individual cell lines. After cell inoculation, the microtiter plates were incubated at 37° C., 5% CO2, 95% air, and 100% relative humidity for 24 hours prior to addition of test compounds. 24 hours later, two plates of each cell line were fixed in situ with trichloroacetic acid (TCA) to measure the cell population for each cell line at the time of test compound addition (Tz). Test compounds were solubilized in dimethyl sulfoxide at 400-fold the intended final maximum test concentration, and stored frozen prior to use. At the time of compound addition, an aliquot of frozen concentrate was thawed and diluted to twice the intended final maximum test concentration with a complete medium containing 50 μg/ml of gentamicin. Additional four concentration of 10-fold or ½ log serial dilutions were made to provide a total of five compound concentrations plus control. Aliquots of 100 μl of these different compound dilutions were added to appropriate microtiter wells already containing 100 μl of medium, resulting in the required final compound concentrations.
(§2) Following compound addition, the plates were incubated for additional 48 hours at 37° C., 5% CO2, 95% air, and 100% relative humidity. For adherent cells, the assay was terminated by the addition of cold TCA. Cells were fixed in situ by the gentle addition of 50 μl of cold 50% (w/v) TCA (final concentration, 10% TAC) and incubated at 4° C. for 60 minutes. The supernatant was discarded, and the plates were washed five times with tap water and air-dried. A sulforhodamine B (SRB) solution (100 μl) at 0.4% (w/v) in 1% acetic acid was added to each well, and plates were incubated at room temperature for 10 minutes. After staining, unbound dye was removed by washing five times with 1% acetic acid and the plates were air-dried. Bound stain was subsequently solubilized with 10 mM Trizma base, and the absorbance was read on an automated plate reader at a wavelength of 515 nm. For suspension cells, the methodology was the same except that the assay was terminated by fixing settled cells at the bottom of the wells by gently adding 50 μl of 80% TCA (final concentration, 16% TCA). Using the seven absorbance measurements [time zero (Tz), control growth (C), and test growth rate in the presence of compound at the five concentration levels (Ti)], the growth percentage was calculated at each of the compound concentration levels. Growth inhibition percentage was calculated as follows: [(Ti−Tz)/(C−Tz)]×100 for concentrations for which Ti>/=Tz [(Ti−Tz)/Tz]×100 for concentrations for which Ti<Tz.

[2] = system: LOX IMVI; assay: NCI cancer cell line panel screening (SRB), melanoma cell line LOX IMVI; assay type: cell-based, human; details: Homo sapiens, read-out: IC50 against melanoma cell line in vitro
Experimental: as §1, with “Briefly, human cell lines were allowed to grow in an RPMI 1640 medium containing 5% FBS and 2 mM L-glutamine.” left out
as §2, with “Bound stain was subsequently solubilized with 10 mM Trizma base, and the absorbance was read on an automated plate reader at a wavelength of 515 nm.” left out

[3] = system: M14; assay: NCI cancer cell line panel screening (SRB), melanoma cell line M14; assay type: cell-based; details: Homo sapiens, read-out: IC50 against melanoma cell line in vitro
Experimental: as §1, §2

[4] = biological target: B-RAF (Homo sapiens (Human), UniProt P15056); assay: Protein kinase enzymatic activity (Reaction Biology kinase hotspot, 33P-ATP); assay type: biochemical; details: read-out: Inhibitory effect against kinase activity, B-RAF (IC50)
Experimental: (§3) Reaction biology kinase hotspot service (http://www.reactionbiology.com) was used to measure IC50. In a final reaction volume of 25 μL, kinase (5 mU to 10 mU) was incubated with 25 mM Tris (pH 7.5), 0.02 mM EGTA, 0.66 mg/ml of myelin basic protein, 10 mM magnesium acetate, and [^33P-ATP] (specific activity of about 500 CPM/pmol, concentration as required). The reaction was initiated by addition of Mg-ATP mix. After incubation for 40 min at room temperature, the reaction was stopped by addition of 5 μl of a 3% phosphoric acid solution. 10 μL of the reaction was then spotted onto a P30 filtermat and washed three times for 5 minutes in 75 mM phosphoric acid and once in methanol prior to drying and scintillation counting.

[5] = biological target: C-RAF (Homo sapiens (Human), UniProt P04049, Y340D/Y341D); assay: as above; assay type: biochemical; details: read-out: Inhibitory effect against kinase activity, C-RAF (IC50)
Experimental: as §3

[6] = biological target: V600E-B-RAF (Homo sapiens (Human), UniProt P15056, V600E); assay: as above; assay type: biochemical; details: read-out: Inhibitory effect against kinase activity, V600E-B-RAF (IC50)
Experimental: as §3

Chain of V600E-B-RAF (P15056 whole entry V600E): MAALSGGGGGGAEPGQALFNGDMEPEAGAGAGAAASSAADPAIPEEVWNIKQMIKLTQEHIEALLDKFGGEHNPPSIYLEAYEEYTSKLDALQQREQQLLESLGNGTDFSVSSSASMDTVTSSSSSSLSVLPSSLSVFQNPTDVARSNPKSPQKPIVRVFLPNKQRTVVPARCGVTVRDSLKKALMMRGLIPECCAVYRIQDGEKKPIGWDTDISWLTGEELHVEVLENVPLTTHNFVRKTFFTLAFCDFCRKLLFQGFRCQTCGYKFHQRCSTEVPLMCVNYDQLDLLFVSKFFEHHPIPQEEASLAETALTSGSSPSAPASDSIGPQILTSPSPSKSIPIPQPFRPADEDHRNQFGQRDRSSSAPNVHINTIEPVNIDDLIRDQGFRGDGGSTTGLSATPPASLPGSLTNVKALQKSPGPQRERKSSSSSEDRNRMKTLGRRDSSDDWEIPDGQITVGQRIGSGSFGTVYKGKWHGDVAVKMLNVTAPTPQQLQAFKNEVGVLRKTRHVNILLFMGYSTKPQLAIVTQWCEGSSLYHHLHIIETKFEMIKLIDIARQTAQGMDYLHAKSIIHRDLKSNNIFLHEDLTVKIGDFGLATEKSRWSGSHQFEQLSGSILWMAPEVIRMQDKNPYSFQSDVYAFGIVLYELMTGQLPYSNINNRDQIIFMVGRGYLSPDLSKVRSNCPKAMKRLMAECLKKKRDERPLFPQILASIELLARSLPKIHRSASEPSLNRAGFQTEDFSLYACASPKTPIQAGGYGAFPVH
Chain of B-RAF (P15056 whole entry): as the sequence (P15056 whole entry V600E) above, with E600V counted along it
Chain of C-RAF (P04049 306-648 Y340D/Y341D limits assumed): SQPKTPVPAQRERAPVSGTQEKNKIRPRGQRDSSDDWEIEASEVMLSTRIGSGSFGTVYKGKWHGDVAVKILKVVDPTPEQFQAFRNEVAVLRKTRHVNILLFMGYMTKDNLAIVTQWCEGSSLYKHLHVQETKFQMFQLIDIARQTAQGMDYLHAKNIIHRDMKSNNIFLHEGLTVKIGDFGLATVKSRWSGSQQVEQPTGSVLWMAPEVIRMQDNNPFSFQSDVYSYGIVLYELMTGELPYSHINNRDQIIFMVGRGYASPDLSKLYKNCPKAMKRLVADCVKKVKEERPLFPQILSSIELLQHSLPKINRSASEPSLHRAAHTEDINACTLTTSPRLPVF

CCN1CCN(CCNc2nccc(-c3c(-c4cccc(O)c4)nc4occn34)n2)S1(=O)=O [2II, 2-Ethyl-5-(2-((4-(6-(3-hydroxylphenyl)imidazo[2,1-b]oxazol-5-yl)pyrimidin-2-yl)amino)ethyl)-1,2,5-thiadiazolidine 1,1-dioxide]
IC50 [1]: 190 nM
IC50 [2]: 2530 nM
IC50 [3]: 140 nM
IC50 [4]: < 0.04 nM
IC50 [5]: 0.75 nM
IC50 [6]: 0.67 nM
